This is an account of results in patent US12023319B2, “Carboxylic acid aromatic amides” (priority 2016, dated 2024).

The conditions of data set [1]: cited from earlier work.
For data set [2] the following is noted: cited from earlier work. The source holds these as a separate data set.
The conditions of data set [3]: cited from earlier work. The source holds these as a separate data set.
In a further data set the target is T1, human B1R (Homo sapiens, UniProt P46663).
T1 construct: host or cells: CHO cells
T1 sequence (P46663 1-353): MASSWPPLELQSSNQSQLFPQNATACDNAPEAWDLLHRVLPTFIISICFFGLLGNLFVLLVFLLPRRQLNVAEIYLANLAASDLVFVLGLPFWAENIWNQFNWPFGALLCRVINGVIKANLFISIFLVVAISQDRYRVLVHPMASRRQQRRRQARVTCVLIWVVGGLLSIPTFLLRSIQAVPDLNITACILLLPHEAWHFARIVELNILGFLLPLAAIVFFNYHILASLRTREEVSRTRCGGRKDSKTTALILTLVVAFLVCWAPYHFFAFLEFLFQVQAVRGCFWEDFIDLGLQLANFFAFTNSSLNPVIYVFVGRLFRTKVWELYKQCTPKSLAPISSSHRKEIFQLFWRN
The following applies: human B1R-expressing CHO cells; cited from earlier work.

The next data set has as its system Male Sprague Dawley rats. Briefly: Rat CFA in vivo model (mechanical hyperalgesia, paw withdrawal threshold). The settings on record: for Paw withdrawal threshold 2 hours post-compound: 2 hours post-compound (Table 5). The method, then: Male Sprague Dawley rats were used. Mechanical hyperalgesia was induced by injecting 25 μL of Complete Freund's Adjuvant (CFA) into the plantar surface of one hind paw. Mechanical hyperalgesia was measured using the Pressure Application Measurement apparatus (Ugo Basile, Gemonio, Italy). Briefly, a linearly increasing pressure was applied to an area of ˜50 mm^2 of the plantar side of the hind paw until a behavioural response (paw withdrawal) was observed or until the pressure reached 1000 gf. The pressure at which the behavioural response occurred was recorded as the “Paw Withdrawal Threshold” (PWT). Both CFA-injected and contralateral PWTs were determined for each rat, in each treatment group and at each time point of the studies. The Compound Examples were administered orally in a vehicle of dimethylsulfoxide (DMSO), Polyethylenglycol (PEG) and 2-hydroxypropyl-beta-cyclodextrin (HPCD) (v/v/v=3:20:77). Rats received a first dose of […] of Compound Example per kg body weight 1 hour before CFA injection and a second dose 24 hours after the CFA injection. Mechanical hyperalgesia testing was performed approximately 2 hours before CFA injection, then 2 and 4 hours after the second dose of Compound Example (i.e. 26 and 28 hours after CFA treatment). Data were expressed as the mean±S.D. Area Under the Curve (AUC) of PWTs (defined in table 3 as “AUC of Paw withdrawal threshold (AUC 0-4 hours) post-vehicle” with respect to vehicle group or “AUC of Paw withdrawal threshold (AUC 0-4 hours) post-drug” with respect to Compound Example). Data were analysed by performing a one-way ANOVA followed by a Dunnett's post hoc test. For p values less than 0.05 the results were deemed to be statistically significant.

For data set [4], the target named is T2, native human Bradykinin B1 receptor (Homo sapiens, UniProt P46663).
T2 construct: which express native human Bradykinin B1 receptor after induction with human IL-1beta; Coriell Institute; host or cells: IMR-90 human foetal lung fibroblasts, induced with human IL-1beta
T2 sequence (P46663 1-353): T1 sequence (P46663 1-353)
In words: Calcium flux assay (FLIPR) with IMR-90 human fibroblasts expressing Bradykinin B1 receptor after IL-1beta induction (hB1 IMR-90). Format: cell-based. The settings on record: IMR-90 human fibroblasts after IL-1beta induction, read-out: hB1 IMR90 IC50. In a few lines:
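IMR-90 foetal lung fibroblasts induced with 0.35 ng/mL IL-1beta for 3 h to express native B1 receptor, then loaded with 2.5 μM Fluo-4/AM plus 2.5 mM probenecid for 2 h at 37 °C. Calcium flux read by FLIPR; compounds at 8 concentrations in triplicate, full inhibition defined by 20 μM Lys-(Des-Arg-Leu)-Bradykinin; IC50 derived.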
(In general: A change in cytosolic calcium serves as a functional read-out for many receptors and channels.)

The target of data set [5] is T3, human Bradykinin B1 receptor (Homo sapiens, UniProt P46663).
T3 construct: host or cells: CHO-K1
T3 sequence (P46663 1-353): T1 sequence (P46663 1-353)
In words: Calcium flux assay (FLIPR), CHO-K1 cells expressing human Bradykinin B1 receptor, absence of 0.1% BSA (hB1 free IC50). Format: cell-based. The following applies: absence of 0.1% BSA in assay buffer. In a few lines:
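CHO-K1 hB1-D1 cells, dye-loaded, given compounds (8 concentrations, triplicate, 1% DMSO) 30 min at 28° C, then stimulated with selective B1 agonist peptide; Ca2+ fluorescence read at 538 nm on FLIPR. Peak response normalised to DMSO and 20 µM Lys-(Des-Arg-Leu)-Bradykinin full inhibition; IC50 fitted.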

The conditions of data set [6]: due to metabolic lability; cited from earlier work.

For `C[C@@H]1CC[C@H](C)N1C(=O)c1ccc([C@@H](C)NC(=O)C2(NC(=O)c3cc(F)cc(C(F)(F)F)c3)CC2)c(F)c1`, in data set [1], the aqueous solubility result was “reasonable”. For the same molecule, in data set [2], the human metabolic stability result is “poor”. Moreover, the “pharmacokinetic profile in rat” value in data set [3] is “reasonable”.

In the case of `COC(=O)c1c(Cl)cccc1N1CCC(CNC(=O)C2(NC(=O)C(F)(F)F)CC2)CC1`, at human B1R, the binding affinity result was “highest”.

For `O=C(O)c1cc(NC(=O)C2(c3ccc(OC(F)(F)F)cc3F)CC2)cc(F)c1-c1cnn(C2CCC2)c1` [Example 43, 2-(1-Cyclobutyl-1H-pyrazol-4-yl)-3-fluoro-5-[({1-[2-fluoro-4-(trifluoromethoxy)phenyl]cyclopropyl}carbonyl)amino]benzoic acid], the “Paw withdrawal threshold 4 hours post-compound” value with Male Sprague Dawley rats (0.75 mg/kg p.o.) is 599 ± 28 gf (ns); in the data set on Male Sprague Dawley rats (3 mg/kg p.o.), 610 ± 21 gf (ns); in the data set with Male Sprague Dawley rats (15 mg/kg p.o.), 709 ± 18 gf (****). In addition, the IC50 (in general, the concentration needed to halve the response being measured) amounted to 2.8 nM in data set [4] and 7 nM in data set [5].

For `CC(C)n1cc(-c2ccc(NC(=O)C3(c4ccc(OC(F)(F)F)cc4F)CC3)cc2C(=O)O)cn1` [Example 71, 5-[({1-[2-Fluoro-4-(trifluoromethoxy)phenyl]cyclopropyl}carbonyl)amino]-2-[1-(propan-2-yl)-1H-pyrazol-4-yl]benzoic acid], the “Paw withdrawal threshold 2 hours post-compound” value with Male Sprague Dawley rats (0.75 mg/kg p.o.) is reported as 591 ± 20 gf (ns); with Male Sprague Dawley rats (3 mg/kg p.o.), 628 ± 17 gf (ns); with Male Sprague Dawley rats (10 mg/kg p.o.) it was 742 ± 49 gf (****). For the same molecule, the half-maximal inhibitory concentration (IC50) amounted to 28 nM in data set [4] and 47 nM in data set [5].

Turning to `C[C@@H](NC(=O)C1(NC(=O)C(F)(F)F)CC1)c1ccc(-c2cccc(Cl)c2C(=O)O)cc1F` [MK-0686], the pharmacokinetic profile result in data set [6] is “suboptimal”.
